# Data as given in EP1351565B1, “CHEMICAL INHIBITORS OF MISMATCH REPAIR” (Morphotek, Inc., priority 2001, dated 2002).
# Tests used:
# MMR defective cell lines = conditions: cited from earlier work
# human HEK293 cells [1] = assay: Microsatellite instability of endogenous BAT26 marker in 293 cells; format: cell-based; conditions: 250 µM DMA
# Method: Briefly, […] were grown in control medium or 250 µM DMA, a concentration that is found to be non-toxic, for 14 to 17 days. Cells are then harvested and genomic DNA isolated using the salting out method (Nicolaides, N.C. et al. (1991) Mol. Cell. Biol. 11 :6166-6176.).
# Various amounts of test DNAs from HCT116 (a human colon epithelial cell line) and 293 were first used to determine the sensitivity of our microsatellite test. The BAT26 alleles are known to be heterogeneous between these two cell lines and the products migrate at different molecular weights (Nicolaides personal observation). DNAs were diluted by limiting dilution to determine the level of sensitivity of the assay. DNAs were PCR amplified using the BAT26F: 5'-[…]-3' (SEQ ID NO:43) and the BAT26R: 5'-[…]-3' (SEQ ID NO:44) primers in buffers as described (Nicolaides, N.C. et al. (1995) Genomics 30:195-206). Briefly 1 pg to 100 ngs of DNA were amplified using the following conditions: 94°C for 30 sec, 58°C for 30 sec, 72°C for 30 sec for 30 cycles. […]
# To measure for microsatellite stability in 293 cells grown with or without DMA, 0.1 ngs of DNA from DMA-treated or control 293 cells were amplified using the reaction conditions above. […] Fifty bacterial colonies were analyzed for BAT26 structure by directly adding an aliquot of live bacteria to the PCR mix. […]
# [2] = rat-liver microsomal preparations; cited from earlier work
# human HEK293 cells [3] = assay: Toxicity in HEK293 cells; format: cell-based; conditions: 250 µM, 293 cells
# [4] = test system: Pichia yeast containing a pGUS-OF reporter system; assay: Pichia yeast pGUS-OF reporter assay for MMR blockade; format: cell-based; conditions: 300 µM, 48 hours
# Method: Briefly, the GUS-OF and GUS-IF gene, which contains a polyA repeat at the N-terminus of the protein was subcloned from the pCR=IF-GUS and pCR-OF-GUS plasmids into the EcoRI site of the pGP vector, which is a consitutively expressed yeast vector containing a zeocin resistance gene as selectable marker. pGP-GUS-IF and pGP-GUS-OF vectors were electroporated into competent Pichia cells using standard methods known by those skilled in the art. Cells were plated on YPD agar (10g/L yeast extract; 20 g/L peptone; 2% glucose; 1.5% bactoagar) plates containing 100 µg/ml zeocin. Recombinant yeast are then analyzed for GUS expression/function by replica plating on YPD agar plates containing 100 µg/ml zeocin plus 1 mg/ml X-glu (5-bromo-4-chloro-3-indoyl-beta-D-glucuronide sodium salt) and grown at 30°C for 16 hours. […] None of the yeast containing the GUS-OF turned blue in the presence of the X-glu substrate under normal growth conditions.
# After incubation, yeast were plated on YPD-ZEO-X-GLU plates and grown at 30°C for 16 hours.
# H36pCAR-OF cell line = assay: H36pCAR-OF screening assay (MMR-sensitive β-galactosidase reporter); format: cell-based, murine
# Arabidopsis thaliana [5] = assay: Toxicity curve of DMA and EMS on Arabidopsis seeds (root and shoot formation); format: in vivo
# Method: Briefly, AT seeds were sterilized with straight commercial bleach and 100 seeds were plated in 100mm Murashige and Skoog (MS) phytagar (Life Technology) plates with increasing amounts of DMA (ranging from 100µm to 50mM). A similar amount of seeds were plated on MS phytagar only or in MS phytagar with increasing amounts of EMS (100µM to 50mM), a mutagen commonly used to mutate AT seeds (McCallum, C.M.et al. (2000) Nat. Biotechnol.18:455-457). Plates were grown in a temperature-controlled, fluorescent-lighted humidifier (Percival Growth Chamber) for 10 days. After 10 days, seeds were counted to determine toxicity levels for each compound. […] Plantlets that were identical to untreated seeds were scored healthy. Seeds with stunted root or shoot formation were scored intermediate (inter). Non-germinated seeds were scored dead. Table 2: Toxicity curve of DMA and EMS on Arabidopsis (per […])
# Arabidopsis thaliana [6] = assay: New phenotypes in offspring of chemically treated Arabidopsis plants; format: in vivo
# Method: Next, 50 seeds were plated in two 150mm dishes containing 2mM DMA, 250 µM EMS or no drug. Seeds were grown for 10 days and then 10 plants from each plate were transferred to soil. All plants appeared to be similar in color and height. Plants were grown at room temperature with daily cycles of 18 hr light and 6 hr dark. After 45 days seeds are harvested from siliques and stored in a desiccator at 4°C for 72 hours. Seeds are then sterilized and 100 seeds from each plant is sown directly into water-saturated soil and grown at room temperature with daily cycles of 18 hr light and 6 hr dark. […] These 7 altered plants were light green in color and appeared to grow slower. […] DMA-exposed plants produced offspring that were yellow in appearance in contrast to dark green, which is always found in wild-type plants. In addition, the yellow plants were also shorter. After 30 days, most wild-type plants produced flowers and siliques, while the 7 mutants just began flowering. After 45 days, control plants were harvested while mutant plants were harvested 10 to 15 days later.
# [7] = at high concentrations; cited from earlier work
# MMR activity = conditions: in vitro assays; cited from earlier work
# [8] = test system: immortalized human breast epithelial cells; conditions: cited from earlier work
# [9] = concentration 0.5 (mM), 10 days
# [10] = concentration 1.0 (mM), 10 days
# [11] = concentration 2.5 (mM), 10 days
# [12] = concentration 5.0 (mM), 10 days
# [13] = concentration 12.5 (mM), 10 days
# [14] = Arabidopsis thaliana, in vivo, 10 days, 0.1 mM
# [15] = Arabidopsis thaliana, in vivo, 10 days, 0.5 mM
# [16] = Arabidopsis thaliana, in vivo, 10 days, 1 mM
# [17] = Arabidopsis thaliana, in vivo, 10 days, 2.5 mM
# [18] = Arabidopsis thaliana, in vivo, 10 days, 5 mM
# [19] = Arabidopsis thaliana, in vivo, 10 days, 10 mM
# [20] = Arabidopsis thaliana, in vivo, 10 days, 12.5 mM
# [21] = Arabidopsis thaliana, in vivo, 10 days, 25 mM
# [22] = Arabidopsis thaliana, in vivo, 10 days, 50 mM
compound,measurement,setting,value
COc1ccc2nc3cc(Cl)ccc3c(NCCCNCCCl)c2c1 [ICR191],mutation rates in MMR defective cell lines,MMR defective cell lines,produce enhanced mutation rates in already MMR defective cell lines
"Cc1c2ccccc2c(C)c2ccccc12 [DMA, 9,10-dimethylanthracene]",BAT26 alleles (microsatellite instability),"human HEK293 cells [1]; 14 to 17 days, PCR and 12% PAGE",showed the presence of an altered allele
same,BAT26 polyA repeat length by sequence analysis,"human HEK293 cells [1]; five clones sequenced, control homozygous 26nt polyA",multiple alleles ranging from the wild-type with 26 polyA repeat to shorter alleles (24 polyA repeat) and larger alleles (28 polyA repeat)
same,metabolites formed,[2],"converted to 9-Hydroxymethyl-10-methylanthracene (9-OHMeMA) and 9,10-dihydroxymethyl-anthracene (9,10-DiOHMeA)"
same,toxicity,human HEK293 cells [3],non-toxic
same,blue subclones (GUS activity) on YPD-ZEO-X-GLU plates,[4],a subset of yeast expressing GUS-OF contain blue subclones
same,MI and/or shifting of the polynucleotide tract in the pCAR-OF reporter (β-galactosidase positive cells),H36pCAR-OF cell line,shifting the pCAR-OF reporter plasmid
same,Dead,"Arabidopsis thaliana [5]; concentration 0.1 (mM), 10 days, non-germinated seeds scored dead",0 per 100 seeds
same,Inter,"Arabidopsis thaliana [5]; concentration 0.1 (mM), 10 days, stunted root or shoot formation scored intermediate",0 per 100 seeds
same,Healthy,"Arabidopsis thaliana [5]; concentration 0.1 (no unit in head; mM), MS phytagar, 10 days, identical to untreated seeds",94 per 100 seeds
same,Dead,Arabidopsis thaliana [5]; [9],0 per 100 seeds
same,Inter,Arabidopsis thaliana [5]; [9],0 per 100 seeds
same,Healthy,"Arabidopsis thaliana [5]; concentration 0.5 (mM), MS phytagar, 10 days",99 per 100 seeds
same,Dead,Arabidopsis thaliana [5]; [10],0 per 100 seeds
same,Inter,Arabidopsis thaliana [5]; [10],0 per 100 seeds
same,Healthy,"Arabidopsis thaliana [5]; concentration 1.0 (mM), MS phytagar, 10 days",99 per 100 seeds
same,Dead,Arabidopsis thaliana [5]; [11],0 per 100 seeds
same,Inter,Arabidopsis thaliana [5]; [11],20 per 100 seeds
same,Healthy,"Arabidopsis thaliana [5]; concentration 2.5 (mM), MS phytagar, 10 days",80 per 100 seeds
same,Dead,Arabidopsis thaliana [5]; [12],0 per 100 seeds
same,Inter,Arabidopsis thaliana [5]; [12],15 per 100 seeds
same,Healthy,"Arabidopsis thaliana [5]; concentration 5.0 (mM), MS phytagar, 10 days",85 per 100 seeds
same,Dead,"Arabidopsis thaliana [5]; concentration 10 (mM), 10 days",0 per 100 seeds
same,Inter,"Arabidopsis thaliana [5]; concentration 10 (mM), 10 days",32 per 100 seeds
same,Healthy,"Arabidopsis thaliana [5]; concentration 10 (mM), MS phytagar, 10 days",65 per 100 seeds
same,Dead,Arabidopsis thaliana [5]; [13],0 per 100 seeds
same,Inter,Arabidopsis thaliana [5]; [13],85 per 100 seeds
same,Healthy,"Arabidopsis thaliana [5]; concentration 12.5 (mM), MS phytagar, 10 days",0 per 100 seeds
same,Dead,"Arabidopsis thaliana [5]; concentration 25 (mM), 10 days",0 per 100 seeds
same,Inter,"Arabidopsis thaliana [5]; concentration 25 (mM), 10 days",100 per 100 seeds
same,Healthy,"Arabidopsis thaliana [5]; concentration 25 (mM), MS phytagar, 10 days",0 per 100 seeds
same,Dead,"Arabidopsis thaliana [5]; concentration 50 (mM), 10 days",100 per 100 seeds
same,Inter,"Arabidopsis thaliana [5]; concentration 50 (mM), 10 days",0 per 100 seeds
same,Healthy,"Arabidopsis thaliana [5]; concentration 50 (mM), MS phytagar, 10 days",0 per 100 seeds
same,concentration at which toxicity occurs,"Arabidopsis thaliana [5]; continuous culture, Arabidopsis seeds",10 mM
same,phenotypically distinct plants,Arabidopsis thaliana [6]; offspring at day 10 of plants grown from seeds plated in 2mM DMA,7 out of 118
same,mutagenicity,[7],acts as a potent weak mutagen
Nc1ncnc2c1ncn2[C@@H]1O[C@H](COP(=O)(O)OP(=O)(O)OP(O)(O)=S)[C@@H](O)[C@H]1O [ATP[gamma]S],effect on MMR activity,MMR activity,block the MMR activity
"CCOS(C)(=O)=O [EMS, ethyl methanesulfonate]",blue subclones (GUS activity) on YPD-ZEO-X-GLU plates,[4],none are seen
same,MI and/or shifting of the polynucleotide tract in the pCAR-OF reporter (β-galactosidase positive cells),H36pCAR-OF cell line,did not result in MI
same,concentration at which toxicity occurs,"Arabidopsis thaliana [5]; Arabidopsis thaliana, in vivo, 10 days",250 µm
same,Healthy,Arabidopsis thaliana [5]; [14],100 per 100 cells
same,Inter,Arabidopsis thaliana [5]; [14],0 per 100 cells
same,Healthy,Arabidopsis thaliana [5]; [15],45 per 100 cells
same,Inter,Arabidopsis thaliana [5]; [15],54 per 100 cells
same,Healthy,Arabidopsis thaliana [5]; [16],25 per 100 cells
same,Inter,Arabidopsis thaliana [5]; [16],75 per 100 cells
same,Healthy,Arabidopsis thaliana [5]; [17],0 per 100 cells
same,Inter,Arabidopsis thaliana [5]; [17],0 per 100 cells
same,Healthy,Arabidopsis thaliana [5]; [18],0 per 100 cells
same,Inter,Arabidopsis thaliana [5]; [18],0 per 100 cells
same,Healthy,Arabidopsis thaliana [5]; [19],0 per 100 cells
same,Inter,Arabidopsis thaliana [5]; [19],0 per 100 cells
same,Healthy,Arabidopsis thaliana [5]; [20],0 per 100 cells
same,Inter,Arabidopsis thaliana [5]; [20],0 per 100 cells
same,Healthy,Arabidopsis thaliana [5]; [21],0 per 100 cells
same,Inter,Arabidopsis thaliana [5]; [21],0 per 100 cells
same,Healthy,Arabidopsis thaliana [5]; [22],0 per 100 cells
same,Inter,Arabidopsis thaliana [5]; [22],0 per 100 cells
same,phenotypically distinct plants,Arabidopsis thaliana [6]; 150 offspring at day 10 of plants grown from seeds plated in 250 µM EMS,no phenotypic difference was observed
Nc1ncnc2c1ncn2[C@@H]1O[C@H](COP(=O)(O)OP(=O)(O)NP(=O)(O)O)[C@@H](O)[C@H]1O [AMP-PNP],effect on MMR activity,MMR activity,block the MMR activity
"Cc1c2ccccc2c(C)c2c1ccc1ccccc12 [7,12-dimethylbenz[a]anthracene]",effect on MMR activity,[8],MMR activity might have been blocked
c1ccc2c(c1)cc1ccc3cccc4ccc2c1c34 [benzo [a]pyrene],effect on MMR activity,[8],MMR activity might have been blocked
